We go through 2 compounds from paper PMC9829398 (Plant Biotechnology Journal, 2022).

Entries after “also recorded” stand apart in the source; their conditions may differ.

Data set [1] has as its system ROS in Col‐0 and fer‐4 roots. As to the kind of experiment: ROS detection in plant roots (H2DCF-DA fluorescence). To be noted: 5 μM for 15 min, vs DMSO and lapatinib.
Data set [2] has as its system Meloidogyne incognita. As to the kind of experiment: Rice root-knot nematode disease, preventive root treatment. In kind it is in vivo. Conditions: roots pretreated twice with 3 mL of 5 μM, 800 pre-J2s.
For data set [3], the system named is tobacco. The data set is described as follows: Growth of tobacco (shoot and root fresh weight, Day 25). Conditions: 5 μM irrigated twice.
Data set [4] relates to Ralstonia solanacearum. The class given is in vivo, tomato. To be noted: roots pretreated twice with 3 mL of 5 μM.
The subject of data set [5] is ANJEA‐CD. The data set is described as follows: ANJEA-CD kinase activity (autophosphorylation). In kind it is biochemical, Arabidopsis thaliana. To be noted: 5 μM.
For data set [6], the system named is FER cytoplasmic domain (FER‐CD). As to the kind of experiment: FER-CD kinase activity (autophosphorylation), high-throughput screening, Kinase-Lumi luminescent ATP consumption. In kind it is biochemical, Arabidopsis thaliana. Conditions: in vitro autophosphorylation.
For data set [7], the target named is FER‐CD (Arabidopsis thaliana, UniProt Q9SCZ4). As to the kind of experiment: biochemical.
The test system of data set [8] is Ralstonia solanacearum. In kind it is in vivo, tobacco. To be noted: roots pretreated twice with 3 mL of 5 μM.
The test system of data set [9] is FRK1. To be noted: 5 μM for 24 h, confocal microscopy.

FER‐CD, sequence (Q9SCZ4 469-895): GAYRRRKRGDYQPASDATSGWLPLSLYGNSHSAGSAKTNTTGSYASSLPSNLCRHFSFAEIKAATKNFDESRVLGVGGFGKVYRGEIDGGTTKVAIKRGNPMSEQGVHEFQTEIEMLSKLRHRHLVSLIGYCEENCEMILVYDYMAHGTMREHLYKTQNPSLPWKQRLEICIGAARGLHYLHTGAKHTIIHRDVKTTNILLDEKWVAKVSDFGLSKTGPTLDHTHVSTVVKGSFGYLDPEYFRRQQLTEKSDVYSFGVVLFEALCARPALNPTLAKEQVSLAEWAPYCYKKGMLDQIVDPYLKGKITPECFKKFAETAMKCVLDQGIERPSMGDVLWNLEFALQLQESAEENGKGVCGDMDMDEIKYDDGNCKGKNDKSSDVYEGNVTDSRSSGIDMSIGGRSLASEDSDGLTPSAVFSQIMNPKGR

In general, Kd refers to the constant that tells how readily two partners part at equilibrium. Consider `c1nc2nc(Nc3ccc(N4CCOCC4)cc3)nc(NC3CCCCC3)c2[nH]1` [Reversine], for which the “Production of ROS in Col-0 roots” value in data set [1] was “significantly increased the production of ROS”. Also, in data set [2], the “Control of rice root-knot nematode disease” value was “better preventive effects than staurosporine; also recorded: alleviated soil‐borne diseases”. For the same compound, the “Growth (biomass) of tobacco shoots and roots” value in [3] was “did not observably affect the biomass”. Also, in data set [4], the “Control of tomato bacterial wilt” value was “alleviated soil‐borne diseases”. For the same compound, in data set [5], the “Inhibition rate of ANJEA-CD kinase activity” value is “lower than 55%”. Moreover, the “Effect on FER kinase activity” value in data set [6] was “inhibited the kinase activity of FER”. Also, the equilibrium dissociation constant (Kd) in data set [7] turned out to be 1770 nM. Further, the “Control of tobacco bacterial wilt” value in data set [8] was “alleviated tobacco bacterial wilt; also recorded: alleviated soil‐borne diseases”. Further, the “Expression of FRK1 in roots” value in data set [9] was “did not affect the expression levels”.

On to `O=C(O)c1cc(N(Cc2ccccc2O)Cc2cc(O)ccc2O)ccc1O` [Lavendustin A], for which the “Production of ROS in Col-0 roots” value in data set [1] is reported as “significantly increased the production of ROS”. In data set [2], the “Control of rice root-knot nematode disease” value is “better preventive effects than staurosporine; also recorded: alleviated soil‐borne diseases”. Also, in [3], the “Growth (biomass) of tobacco shoots and roots” value is “significantly improved the growth of tobacco shoots and roots”. Also, the “Control of tomato bacterial wilt” value in data set [4] is on record as “best control effect; also recorded: alleviated soil‐borne diseases”. Further, the “Inhibition rate of ANJEA-CD kinase activity” value in [5] was “lower than 55%”. Further, the “Effect on FER kinase activity” value in data set [6] is reported as “inhibited the kinase activity of FER”. The same compound yielded a Kd in [7] of 2690 nM. In addition, in data set [8], the “Control of tobacco bacterial wilt” value is given as “alleviated tobacco bacterial wilt; also recorded: alleviated soil‐borne diseases”. Further, the “Expression of FRK1 in roots” value in data set [9] is reported as “did not affect the expression levels”.
